Assay: Fluorescence emission spectra of molecular rotors in glycerin and methanol
Type: physicochemical
Settings: for Maximum Emission Wavelength: 1×10^−5 M in glycerin and methanol, excited at maximum excitation wavelength of each dye; for Fluorescence Intensity Ratios in Glycerol/Methanol: 1×10^−5 M, glycerol vs methanol solution
Procedure: The fluorescent dyes (molecular rotors) prepared in Examples 1-68 were separately dissolved in dimethyl sulfoxide to prepare respectively a mother liquor having a concentration of 1×10^−2 M, and each of the mother liquors was added individually to glycerin and methanol, and mixed uniformly, thereby solutions of a final concentration of 1×10^−5 M were prepared individually. According to the different fluorescent dyes, the fluorescence emission spectra of the fluorescent dyes were detected with the maximum excitation wavelengths of respective fluorescent dyes successively under the same conditions.

Row | Compound | Maximum Emission Wavelength | Fluorescence Intensity Ratios in Glycerol/Methanol
1 | CN(CCOCCCS(=O)(=O)O)c1cc2cc3cc(/C=C(\C#N)C(=O)OC(C)(C)C)sc3cc2s1 [Molecular Rotor 49] | 559 nm | 612
2 | CCCCN(CC(O)CO)c1ccc2cc(/C=C3/N=C(C)N(C)C3=O)sc2c1 (stereo not drawn) [Molecular Rotor 27] | 600 nm | 601
3 | 6-[2-cyano-2-(2-phenylpropionazole)-vinyl]-2-dimethylamino-thieno[3,2-B:2′,3′-D]thiophene [Molecular Rotor 12] | 655 nm | 655
4 | CN(CCC#N)c1cc2c(s1)-c1sc(/C=C(\C#N)c3nc4ccccc4o3)cc1[Si]21CCC1 [Molecular Rotor 61] | 691 nm | 816
5 | COc1c(/C=C(\C#N)C(=O)O)sc2c(OC)c(N(C)C)sc12 [Molecular Rotor 33] | 565 nm | 531
6 | CN(C)c1cc2c(s1)-c1sc(/C=C(\C#N)c3nc4ccccc4o3)cc1C2(C)C [Molecular Rotor 66] | 670 nm | 623
7 | CN(CCO)c1ccc2cc(/C=C(\C#N)c3nc4ccccc4o3)sc2c1 [Molecular Rotor 23] | 608 nm | 568
8 | CNc1cc2c(s1)-c1sc(/C=C(\C#N)C(=O)OC(C)(C)C)cc1[Si]21CCC1 [Molecular Rotor 60] | 637 nm | 812
9 | CCCCN(CCO)c1ccc2cc(/C=C3N=C(/C=C/c4ccccc4)N(C)C/3=O)sc2c1 [Molecular Rotor 28] | 650 nm | 569
10 | CNc1cc2cc3sc(/C=C(\C#N)c4nc5ccccc5s4)cc3cc2s1 [Molecular Rotor 44] | 603 nm | 631
11 | CN(C)c1cc2c(s1)-c1sc(C=C(C#N)C#N)cc1[Si]2(C)C [Molecular Rotor 56] | 655 nm | 591
12 | CN(C)c1cc2sc3cc(/C=C(\C#N)C(=O)OC(C)(C)C)sc3c2s1 [Molecular Rotor 11, 6-(2-cyano-2-tert-butyl formatevinyl)-2-dimethylamino-thieno[3,2-B:2′,3′-D]thiophene] | 620 nm | 568
13 | COCCNC(=O)/C(C#N)=C/c1cc2sc3cc(N(CCO)CCO)ccc3c2s1 [Molecular Rotor 36] | 628 nm | 901
14 | CN(C)c1cc2cc3sc(C=C(C#N)C#N)cc3cc2s1 [Molecular Rotor 41] | 558 nm | 875
15 | COCCNC(=O)/C(C#N)=C/c1cc2ccc(OC)cc2s1 [Molecular Rotor 30] | 520 nm | 513
16 | COCCOCCOCCOCCOCCOCCOCCOCCOCCOCCOCCOCCOCCOCCOCCNc1cc2sc3cc(/C=C4\N=C(C)N(C)C4=O)sc3c2s1 [Molecular Rotor 18] | 630 nm | 678
17 | COCCOCCOCCOCCOCCN(C)c1ccc2cc(/C=C(\C#N)C(=O)O)sc2c1 [Molecular Rotor 29] | 570 nm | 515
18 | CCCCCCCCCCN(CCCCCCCCCC)c1ccc2cc(C=C(C#N)C#N)sc2c1 [Molecular Rotor 25] | 570 nm | 615

Row | Compound | Maximum Emission Wavelength | Fluorescence Intensity Ratios in Glycerol/Methanol
19 | CN(CCO)c1cc2cc3sc(/C=C(\C#N)c4nc5ccccc5o4)cc3cc2s1 [Molecular Rotor 43] | 582 nm | 816
20 | COCCNC(=O)/C(C#N)=C/c1cc2cc3cc(N4CCOCC4)sc3cc2s1 [Molecular Rotor 54] | 563 nm | 722
21 | CN(C)c1cc2sc3cc(C=C(C#N)C#N)sc3c2s1 [Molecular Rotor 14] | 620 nm | 681
22 | CN(CCC#N)c1cc2cc3sc(/C=C(\C#N)C(=O)O)cc3cc2s1 [Molecular Rotor 47] | 561 nm | 912
23 | COCCNC(=O)/C(C#N)=C/c1cc2cc3sc(N4CCCC4)cc3cc2s1 [Molecular Rotor 46] | 563 nm | 712
24 | CN1C(=O)/C(=C/c2cc3sc4cc(N(CCO)CCO)sc4c3s2)N=C1c1ccccc1 [Molecular Rotor 19] | 650 nm | 791
25 | CN(CCOCCCS(=O)(=O)O)c1cc2sc(C=C(C#N)C#N)cc2s1 [Molecular Rotor 4, 6-(2,2-dicyano-vinyl)-2-[N-methyl-N-(3-sulfonic acid propyloxyethyl)]-thieno[3,2,b]thiophene] | 557 nm | 892
26 | COc1c(/C=C(\C#N)C(=O)OC(C)(C)C)sc2c(OC)c(N(C)C)sc12 [Molecular Rotor 32] | 570 nm | 612
27 | COC(=O)/C(C#N)=C/c1cc2ccc(O)cc2s1 [Molecular Rotor 31] | 535 nm | 572
28 | CN(CCC#N)c1cc2cc3cc(/C=C(\C#N)c4nc5ccccc5s4)sc3cc2s1 [Molecular Rotor 53] | 599 nm | 915
29 | CC1=N/C(=C/c2cc3cc4cc(N(CCO)CCO)sc4cc3s2)C(=O)N1C [Molecular Rotor 50] | 587 nm | 777
30 | COCCOCCOCCOCCOCCN(C)c1ccc2c(c1)sc1cc(/C=C(\C#N)c3nc4ccccc4o3)sc12 [Molecular Rotor 38] | 650 nm | 623
31 | CN1C(=O)/C(=C/c2cc3sc4cc(N(CCCl)CCCl)sc4c3s2)N=C1/C=C/c1ccccc1 [Molecular Rotor 20] | 690 nm | 536
32 | CN(C)c1ccc2c(c1)sc1cc(C=C(C#N)C#N)sc12 [Molecular Rotor 34] | 626 nm | 1012
33 | CN(CCC#N)c1ccc2c(c1)sc1cc(/C=C(\C#N)c3nc4ccccc4s3)sc12 [Molecular Rotor 39] | 667 nm | 541
34 | COCCNC(=O)/C(C#N)=C/c1cc2sc3cc(N4CCCC4)sc3c2s1 [Molecular Rotor 15] | 620 nm | 799
35 | CN(CCO)c1cc2c(s1)-c1sc(/C=C(\C#N)C(=O)O)cc1C2(C)C [Molecular Rotor 68] | 648 nm | 953
36 | CN(CC(O)C(O)C(O)C(O)CO)c1cc2sc3cc(/C=C(\C#N)C(=O)O)sc3c2s1 (stereo not drawn) [Molecular Rotor 16] | 620 nm | 951
